Measurements taken from patent publication US20260159536A1, “AKR1C3-ACTIVATED DNA ALKYLATING AGENT, AND MEDICAL APPLICATION THEREOF” (ASCENTAWITS PHARMACEUTICALS, LTD., priority 2021, published 2026).
Read-outs that look alike come from different tables or passages of the source.

Columns and labels:
H460 cancer cells = assay: H460 proliferation in the presence or absence of AKR1C3 inhibitor AST-3021 (Alamar Blue); assay type: cell-based, human; conditions: for IC50: Homo sapiens, NCI-H460, H460, 2 hours exposure
Procedure: (§1) The tested compound was then added. The compound was dissolved in 100% DMSO at 200 times of the desired final test concentration. When the medicament was added, the compound was further diluted to 4 times of the desired final test concentration by using the complete medium. 50 μL of aliquots of the compound with specific concentration were added to the microwells containing 150 μL of medium, and then the final medicament concentration was obtained. […] The medicament was then washed. […] After the incubation was finished, the Alamar Blue was used to analyze and quantify the living cells.

NCI-H2110 = assay: AKR1C3-dependent cytotoxicity, NSCLC cell line NCI-H2110; assay type: cell-based
Procedure: as §1

[1] = Liver microsome stability, monkey; assay type: in vitro ADME; conditions: for Percentage remaining after 30 minutes: Monkey liver microsomes
Procedure: (§2) 1) Two individual experiments were performed.
(§3) All experiments were performed in duplicate.

NCI-H1792 = assay: AKR1C3-dependent cytotoxicity, NSCLC cell line NCI-H1792; assay type: cell-based; conditions: Homo sapiens
Procedure: as §1

[2] = system: HuPrime model LI6664 human liver cancer; assay: In vivo pharmacodynamics, liver cancer LI6664 PDX model; set-up: species or system BALB/c nude mice; conditions: for relative tumor inhibition rate TGI (%): QWx3; for Relative tumor volume (x ± S) / Tumor volume (x ± S): mean ± standard error; for Tumor volume (x ± S): in mm³ (unit assumed)
Procedure: Experiment Instruction: BALB/c nude mice were subcutaneously inoculated with HuPrime® model LI6664 tumor blocks to establish a subcutaneous transplantation tumor model of human liver cancer. […] Among them, 7.5% anhydrous ethanol+7.5% polyoxyethylene (35) castor oil+85% glucose injection D5W (pH 7.4) vehicle control group was administered by tail vein once a week for 3 consecutive weeks; test drug AST-3424 0.3 mg/kg and 1 mg/kg groups were administered by tail vein injection once a day for 5 consecutive days, followed by 2 days off, followed by 2 weeks off, and then continuously administered for 5 consecutive days; the test drug AST-3424 1.25 mg/kg group was administered by tail vein injection once a week for 2 consecutive weeks, followed by one week off, and then continuously administered for 2 consecutive weeks, Compound A 0.5 mg/kg, 1.5 mg/kg, and 4.5 mg/kg groups were administered by tail vein injection once a week for three consecutive weeks, followed by 1 week off, and then administered for three consecutive weeks. […] The efficacy was evaluated according to the relative tumor inhibition rate TGI (%), and the safety was evaluated according to the change in body weight and the death of the animals.

[3] = Liver microsome stability, mouse; assay type: in vitro ADME; conditions: for Percentage remaining after 30 minutes: Mouse liver microsomes
Procedure: as §2, §3

H460 cells = assay: Inhibition of H460 cancer cell proliferation (CTG, 72 h); assay type: cell-based; conditions: Homo sapiens, NCI-H460
Procedure: If not otherwise specified, IC50 values were measured by the following experimental methods:
c) The cell suspension was added to 96-well plate with 100 μL per well and 2000 cells/well of cell density.
a) Cells were plated for 24 hours, and then the compounds acted singly. 99 μL of growth medium was supplemented per well, and then 1 μL of 200× compound was added, gently shaken to ensure uniform mixing, and then placed in a 37° C., 5% CO2 incubator.
b) The cell plate was placed in the incubator for 72 hours.
b) 100 μL of CTG reagent (CelltiterGlo kit) was added to each well, the plate was placed in a rapid oscillator and shaken for 2 minutes, and then placed at room temperature for 30 minutes away from light.
c) The chemiluminescence signal value was read with Envision instrument.
The IC50 was calculated using GraphPad Prism 8 software and the IC50 (half inhibitory concentration) of the compounds was obtained using the following non-linear fitting formula: […]

NCIH2106 = assay: AKR1C3-dependent cytotoxicity, NSCLC cell line NCIH2106; assay type: cell-based
Procedure: as §1

O=[N+]([O-])c1ccc(C(OP(=O)(N2CC2)N2CC2)C(F)(F)F)cc1Oc1ccc(-c2ccc(F)cc2)c(F)c1 (racemic) [Compound A]
IC50 (H460 cancer cells; AST-3021 3 micromolar, read-out: IC50 With the addition of AST-3021): 2140 nM
IC50 (H460 cancer cells; no AKR1C3 inhibitor, read-out: IC50 Without the addition of AST-3021): 5.82 nM
Fold (H460 cancer cells; IC50 with AST-3021 over IC50 without): 367.13
IC50 (NCI-H2110): 67.8 nM
Percentage remaining after 30 minutes ([1]; with the addition of NADPH): 82.29%
Percentage remaining after 30 minutes ([1]; without the addition of NADPH): 81.30%
stability in liver microsomes ([1]; monkey): relatively stable
IC50 (NCI-H1792): 375 nM
relative tumor inhibition rate TGI (%) ([2]; 0.5 mg/kg i.v. QWx3, 1 week off, Day 28): 34.07%
relative tumor inhibition rate TGI (%) ([2]; 1.5 mg/kg i.v. QWx3, 1 week off, Day 28): 66.57%
relative tumor inhibition rate TGI (%) ([2]; 4.5 mg/kg i.v. QWx3, 1 week off, Day 28): 77.05%
T/C (%) ([2]; Compound A 0.5 mg/kg, Day 28): 65.93%
Relative tumor volume (x ± S) ([2]; Compound A 0.5 mg/kg, Day 28): 8.51 ± 2.07
Tumor volume (x ± S) ([2]; Compound A 0.5 mg/kg, Day 28): 920.46 ± 215.96
T/C (%) ([2]; Compound A 1.5 mg/kg, Day 28): 33.43%
Relative tumor volume (x ± S) ([2]; Compound A 1.5 mg/kg, Day 28): 4.31 ± 0.54
Tumor volume (x ± S) ([2]; Compound A 1.5 mg/kg, Day 28): 466.31 ± 77.63
T/C (%) ([2]; Compound A 4.5 mg/kg, Day 28): 22.95%
Relative tumor volume (x ± S) ([2]; Compound A 4.5 mg/kg, Day 28): 2.96 ± 0.27
Tumor volume (x ± S) ([2]; Compound A 4.5 mg/kg, Day 28): 320.72 ± 40.03
Size of tumor volume ([2]; Group6, Compound A 0.5 mg/kg, Day 0): 108.44 mm^3
Size of tumor volume ([2]; Group6, Compound A 0.5 mg/kg, Day 4): 201.76 mm^3
Size of tumor volume ([2]; Group6, Compound A 0.5 mg/kg, Day 7): 277.38 mm^3
Size of tumor volume ([2]; Group6, Compound A 0.5 mg/kg, Day 11): 301.39 mm^3
Size of tumor volume ([2]; Group6, Compound A 0.5 mg/kg, Day 14): 347.30 mm^3
Size of tumor volume ([2]; Group6, Compound A 0.5 mg/kg, Day 18): 434.18 mm^3
Size of tumor volume ([2]; Group6, Compound A 0.5 mg/kg, Day 21): 518.23 mm^3
Size of tumor volume ([2]; Group6, Compound A 0.5 mg/kg, Day 25): 746.19 mm^3
Size of tumor volume ([2]; Group6, Compound A 0.5 mg/kg, Day 28): 920.46 mm^3
Size of tumor volume ([2]; Group6, Compound A 0.5 mg/kg, Day 32): 1036.44 mm^3
Size of tumor volume ([2]; Group6, Compound A 0.5 mg/kg, Day 35): 1258.05 mm^3
Size of tumor volume ([2]; Group6, Compound A 0.5 mg/kg, Day 39): 1426.66 mm^3
Size of tumor volume ([2]; Group6, Compound A 0.5 mg/kg, Day 42): 1661.81 mm^3
Size of tumor volume ([2]; Group6, Compound A 0.5 mg/kg, Day 46): 2037.97 mm^3
Size of tumor volume ([2]; Group6, Compound A 0.5 mg/kg, Day 49): 1746.71 mm^3
Size of tumor volume ([2]; Group7, Compound A 1.5 mg/kg, Day 0): 108.25 mm^3
Size of tumor volume ([2]; Group7, Compound A 1.5 mg/kg, Day 4): 127.56 mm^3
Size of tumor volume ([2]; Group7, Compound A 1.5 mg/kg, Day 7): 152.00 mm^3
Size of tumor volume ([2]; Group7, Compound A 1.5 mg/kg, Day 11): 161.35 mm^3
Size of tumor volume ([2]; Group7, Compound A 1.5 mg/kg, Day 14): 206.44 mm^3
Size of tumor volume ([2]; Group7, Compound A 1.5 mg/kg, Day 18): 225.71 mm^3
Size of tumor volume ([2]; Group7, Compound A 1.5 mg/kg, Day 21): 287.02 mm^3
Size of tumor volume ([2]; Group7, Compound A 1.5 mg/kg, Day 25): 398.93 mm^3
Size of tumor volume ([2]; Group7, Compound A 1.5 mg/kg, Day 28): 466.31 mm^3
Size of tumor volume ([2]; Group7, Compound A 1.5 mg/kg, Day 32): 543.94 mm^3
Size of tumor volume ([2]; Group7, Compound A 1.5 mg/kg, Day 35): 643.84 mm^3
Size of tumor volume ([2]; Group7, Compound A 1.5 mg/kg, Day 39): 805.84 mm^3
Size of tumor volume ([2]; Group7, Compound A 1.5 mg/kg, Day 42): 1060.20 mm^3
Size of tumor volume ([2]; Group7, Compound A 1.5 mg/kg, Day 46): 1179.82 mm^3
Size of tumor volume ([2]; Group7, Compound A 1.5 mg/kg, Day 49): 1407.10 mm^3
Size of tumor volume ([2]; Group8, Compound A 4.5 mg/kg, Day 0): 108.26 mm^3
Size of tumor volume ([2]; Group8, Compound A 4.5 mg/kg, Day 4): 125.30 mm^3
Size of tumor volume ([2]; Group8, Compound A 4.5 mg/kg, Day 7): 142.58 mm^3
Size of tumor volume ([2]; Group8, Compound A 4.5 mg/kg, Day 11): 150.82 mm^3
Size of tumor volume ([2]; Group8, Compound A 4.5 mg/kg, Day 14): 176.69 mm^3
Size of tumor volume ([2]; Group8, Compound A 4.5 mg/kg, Day 18): 180.29 mm^3
Size of tumor volume ([2]; Group8, Compound A 4.5 mg/kg, Day 21): 201.42 mm^3
Size of tumor volume ([2]; Group8, Compound A 4.5 mg/kg, Day 25): 282.76 mm^3
Size of tumor volume ([2]; Group8, Compound A 4.5 mg/kg, Day 28): 320.72 mm^3
Size of tumor volume ([2]; Group8, Compound A 4.5 mg/kg, Day 32): 339.73 mm^3
Size of tumor volume ([2]; Group8, Compound A 4.5 mg/kg, Day 35): 360.45 mm^3
Size of tumor volume ([2]; Group8, Compound A 4.5 mg/kg, Day 39): 391.38 mm^3
Size of tumor volume ([2]; Group8, Compound A 4.5 mg/kg, Day 42): 417.79 mm^3
Size of tumor volume ([2]; Group8, Compound A 4.5 mg/kg, Day 46): 451.01 mm^3
Size of tumor volume ([2]; Group8, Compound A 4.5 mg/kg, Day 49): 538.20 mm^3
weight loss ([2]; treatment period, tested doses): no weight loss
Percentage remaining after 30 minutes ([3]; with the addition of NADPH): 98.59%
Percentage remaining after 30 minutes ([3]; without the addition of NADPH): 104.30%
stability in liver microsomes ([3]; mouse): relatively stable
IC50 (H460 cells): 6.87 nM
IC50 (NCIH2106): 6.86 µM
